According to patent US11713309B2, “Solid forms of Cerdulatinib” (Alexion Pharmaceuticals, Inc., priority 2018, dated 2023):
Where a name gives a salt, the structure may show the parent alone. One block for each molecule: values may come before it.

Experiments:
Format in all cases: physicochemical
[1] = Thermodynamic aqueous solubility by HPLC; settings: HPLC grade water, 25° C., 24 hours, second scale up material
Description: The suspension was equilibrated at 25° C. for 24 hours. The suspension was then passed through a filter into an HPLC vial. The filtrate was then diluted by an appropriate factor. Quantification was executed by HPLC with reference to a standard solution of approximately 1 mg·mL^−1 in acetonitrile:water (1:1). Different volumes of the standard, diluted and undiluted sample solutions were injected. […] HPLC method parameters are described in Table 1 and Table 2.
Analysis was performed on an Agilent 1100 series liquid chromatography, equipped with a UV detector (DAD or VWD) @ 254 nm and using Chemstation Rev.B.01.03 software for data processing.
(§1) The solubility of the salts/co-crystals of Compound I prepared from the second scale up process was analyzed. The materials recovered after the solubility analysis were evaluated by XRPD to observe any form changes.

[2] = XRPD form evaluation of materials recovered after solubility analysis; settings: aqueous solubility analysis, second scale up material
Description: as §1

[3] = Gravimetric vapor sorption (GVS) hygroscopicity
Description: Sorption isotherms were obtained using a Hiden Isochema moisture sorption analyser (model IGAsorp), controlled by IGAsorp Systems Software v6.50.48. The sample was maintained at a constant temperature (25° C.) by the instrument controls. The humidity was controlled by mixing streams of dry and wet nitrogen, with a total flow of 250 mL·min^−1. The instrument was verified for relative humidity content by measuring three calibrated Rotronic salt solutions (10-50-88%). The weight change of the sample was monitored as a function of humidity by a microbalance (accuracy+/−0.005 mg). A defined amount of sample was placed in a tared mesh stainless steel basket under ambient conditions. A full experimental cycle consisted of two scans (sorption and desorption) at a constant temperature (25° C.) and 10% RH intervals over a 10-90% range (90 minutes for each humidity level).
The hygroscopicity of the esylate, mesylate, HCl, and sulfate salts/co-crystals of Compound I formed via the first scale up process was analyzed. All hygroscopicity experiments covered a wide range of humidity (0 to about 90% relative humidity) and were performed at about 25° C. to assess behavior.

[4] = Moisture uptake study of Compound I HCl amorphous at ambient conditions
[5] = Slurry competition of free base forms; settings: from 5° C. to 50° C.
Description: Slurry competition was performed to evaluate the stability of Compound I free base Form II and Type E. A mixture of Compound I free base Form II and Type E were added into 1.0 mL of saturated EtOH or MEK solution (slurry of Form I at 5° C./RT/50° C. overnight). The suspensions were stirred at target temperatures.
Slurry competition was performed to evaluate the stability of free base Form I and Form II. A mixture of free base Form I and Form II were added into 1.0 mL of saturated EtOH or MEK solution (slurry of Form I at 5° C./RT/50° C. overnight). The suspensions were stirred at target temperatures for 3 days.

[6] = Slurry maturations in various solvents (form reproducibility/stability); settings: cycling about 25 to about 50° C., about 4 days
Description: A series of slurry maturations in various solvents was performed to further analyze the form reproducibility/stability of the esylate, mesylate, HCl, and sulfate salts/co-crystals of Compound I. The solvents chosen were acetonitrile, EtOAc, ethanol, and IPA. The input materials were the salts/co-crystals of Compound I formed via the second scale up process. About 20 mg of each sample was charged to reflux tubes and heated with temperature cycling between about 25 and about 50° C. for about 4 days. The resulting materials were isolated by filtration and dried in vacuo at about 40° C. The results of the slurry maturations for the resulting HCl and mesylate salts/co-crystals are presented in subsections (a)-(d) below. The data for the resulting esylate and sulfate salts/co-crystals of Compound have been omitted due to notable form variation.

[7] = Thermodynamic pH-solubility profile; settings: 7 days of shaking, about 37° C. water bath
Excerpt: A thermodynamic pH-solubility profile of Compound I HCl Form I in various buffer or non-buffer solutions is further provided in FIG. 61. FIG. 61 additionally includes the thermodynamic pH-solubility profile of Compound I free base. It is of note that no data is shown in the profile of Compound I free base below a pH of about 2.0, as Compound I free base converted to Compound I HCl Form I below a pH of about 2.0. Similarly, no data is shown in the profile of Compound I HCl Form I above a pH of about 3.0, as Compound I HCl Form I converted to Compound I free base above a pH of about 3.0.

solubility ([1]; listed as Comp. I Sulfate Similar to Form I): 10 µg/mL
SMILES: CCS(=O)(=O)N1CCN(c2ccc(Nc3ncc(C(N)=O)c(NC4CC4)n3)cc2)CC1 [Compound I sulfate Form I, 4-(cyclopropylamino)-2-(4-(4-(ethylsulfonyl)piperazin-1-yl)phenylamino)pyrimidine-5-carboxamide]
Form change on solubility analysis (XRPD post vs pre) ([2]; listed as Compound I sulfate prepared from IPA): form change to Compound I sulfate Form II

solubility ([1]; listed as Comp. I Sulfate Similar to Form II): 7 µg/mL
Form change on solubility analysis (XRPD post vs pre) ([2]; listed as Compound I sulfate prepared from water): no form change
GVS water absorbed ([3]; 25° C., first scale up material, listed as Comp. I Sulfate Similar to Form II): About 0.5 mg
GVS total weight loss ([3]; dried to 0% RH): about 5.9%
Crystalline form by XRPD post GVS analysis ([3]; exposure to humidity 0 to about 90% RH, about 25° C., listed as crystalline Compound I sulfate sample): slightly increased the crystallinity
Hygroscopicity (qualitative) ([3]; second scale up material): facile pick-up of surface moisture
GVS gradual weight gain ([3]; up to about 80% RH): about 4.2%
SMILES: CCS(=O)(=O)N1CCN(c2ccc(Nc3ncc(C(N)=O)c(NC4CC4)n3)cc2)CC1 [Compound I sulfate Form II, 4-(cyclopropylamino)-2-(4-(4-(ethylsulfonyl)piperazin-1-yl)phenylamino)pyrimidine-5-carboxamide]

solubility ([1]; listed as Comp. I HCl (formed using dry HCl) Form II): 120 µg/mL
Form change on solubility analysis (XRPD post vs pre) [2]: form change to Compound I HCl Form I
Form after slurry maturation (XRPD) ([6]; IMA): conversion to Compound I Form I
SMILES: CCS(=O)(=O)N1CCN(c2ccc(Nc3ncc(C(N)=O)c(NC4CC4)n3)cc2)CC1 [Compound I HCl Form II, 4-(cyclopropylamino)-2-(4-(4-(ethylsulfonyl)piperazin-1-yl)phenylamino)pyrimidine-5-carboxamide]
Form after slurry maturation (XRPD) ([6]; IPA): conversion to Compound I Form I, yet retains some mixed features
Form after slurry maturation (XRPD) ([6]; acetonitrile and EtOAc): mixture of Compound I Form I, Compound I Form II, and possibly other forms

Further lines, the molecule ahead of its results:

SMILES: CCS(=O)(=O)N1CCN(c2ccc(Nc3ncc(C(N)=O)c(NC4CC4)n3)cc2)CC1 [Compound I HCl amorphous, 4-(cyclopropylamino)-2-(4-(4-(ethylsulfonyl)piperazin-1-yl)phenylamino)pyrimidine-5-carboxamide]
GVS mass change ([3]; above about 40% RH, most markedly above about 80% RH): large increase in mass
Crystallinity on exposure to ambient conditions [4]: gradual increase in crystallinity

SMILES: CCS(=O)(=O)N1CCN(c2ccc(Nc3ncc(C(N)=O)c(NC4CC4)n3)cc2)CC1 [Compound I Form II, 4-(cyclopropylamino)-2-(4-(4-(ethylsulfonyl)piperazin-1-yl)phenylamino)pyrimidine-5-carboxamide]
Relative thermodynamic stability (slurry competition with Form I) [5]: more thermodynamically stable
Relative thermodynamic stability (slurry competition with Type E) [5]: more thermodynamically stable than Type E

SMILES: CCS(=O)(=O)N1CCN(c2ccc(Nc3ncc(C(N)=O)c(NC4CC4)n3)cc2)CC1 [Compound I mesylate Form III, 4-(cyclopropylamino)-2-(4-(4-(ethylsulfonyl)piperazin-1-yl)phenylamino)pyrimidine-5-carboxamide]
solubility ([1]; listed as Comp. I Mesylate Similar to Form III): 2320 µg/mL
Form change on solubility analysis (XRPD post vs pre) [2]: same form, which is different than the forms of either input material
Form after slurry maturation (XRPD) ([6]; acetonitrile, EtOAc, ethanol, IPA, listed as Compound I mesylate (mono-mesylate) Form III): mixture of forms comprising Compound I mesylate Form III and other forms

SMILES: CCS(=O)(=O)N1CCN(c2ccc(Nc3ncc(C(N)=O)c(NC4CC4)n3)cc2)CC1 [Compound I, 4-(cyclopropylamino)-2-((4-(4-(ethylsulfonyl)piperazin-1-yl)phenyl)amino)pyrimidine-5-carboxamide]
pH range in which Compound I free base converted to Compound I HCl Form I [7]: < 2.0
